The test system of experiment [1] is beet armyworm (BAW; Spodoptera exigua: Lepidoptera). The experiment in a line: 96-well microtiter plate-based high throughput (HTS) diet bioassay on beet armyworm (BAW HTS). Format: in vivo. The settings on record: BAW eggs, 12 μg test compound per well, mortality at 6 d post-treatment, mortality class. Here is the method:
(§1) Bioassays on beet armyworm (BAW; Spodoptera exigua: Lepidoptera) were conducted using either a 96-well microtiter plate-based high throughput (HTS) bioassay or a 128-well diet tray assay. The HTS assay is a based on a modification of Lewer et al. J. Nat. Prod. 2006, 69, 1506. BAW eggs of were placed on top of artificial diet (100 μl) in each well of 96-well microtiter plate. The diet was pretreated with test compounds (12 μg dissolved in 30 μL of DMSO-acetone-water mixture) layered on top of the diet using a liquid handling system and then allowed to dry for several hours. Infested plates were then covered with a layer of sterile cotton batting and the plate lid, and then held in the dark at 29° C. Mortality was recoded at 6 d post-treatment. Each plate had six replicates. The percent mortality was calculated from the average of the six replicates. In the case of the 128-well diet assay, three to five second instar BAW larvae were placed in each well (3 mL) of the diet tray that had been previously filled with 1 mL of artificial diet to which 50 μg/cm^2 of the test compound (dissolved in 50 μL of 90:10 acetone-water mixture) had been applied (to each of eight wells) and then allowed to dry. Trays were covered with a clear self-adhesive cover, and held at 25° C., 14:10 light-dark for six days. Percent mortality was recorded for the larvae in each well; activity in the eight wells was then averaged. In Table 7, under the BAW HTS or BAW 50 heading, an “A” means that the compound was tested and at least 50 percent mortality was observed whereas, “B” means that either (1) the compound was tested and less than 50 percent mortality was observed or (2) the compound was not tested.

The test system is the same in experiment [2]. Kind of experiment: 128-well diet tray assay on beet armyworm (BAW 50). Format: in vivo. Here is the method:
as §1

Where [3] appears, read: 96-well microtiter plate HTS diet assay.
Where [4] appears, read: 128-well diet tray assay; 50 μg/cm^2 of test compound on diet; second instar BAW larvae; mortality class.
Setting [5] is: 128-well diet tray assay, second instar BAW larvae, 50 μg/cm^2 of test compound on diet; mortality class.

With `CCC(O)c1ccc(-n2ccc(-c3ccc(C=NOC4OC(C)C(OC)C(OC)C4OC)cc3)n2)cc1` (mixture of isomers) [Compound 5], the “BAW HTS” value in experiment [1] (96-well HTS diet bioassay) is “B (either (1) the compound was tested and less than 50 percent mortality was observed or (2) the compound was not tested)”; in experiment [1] (setting [3]), “B (either (1) the compound was tested and less than 50 percent mortality was observed or (2) the compound was not tested)”. Further, the “BAW 50 ug/cm2” value in experiment [2] (setting [4]) is “A (the compound was tested and at least 50 percent mortality was observed)”.
`CCOC(=O)C1CC(c2ccc(C=NOC3OC(C)C(OC)C(OC)C3OC)cc2)=NN1c1ccc(OC(F)(F)F)cc1` (mixture of isomers) [Compound 13]: the “BAW HTS” value was “B (either (1) the compound was tested and less than 50 percent mortality was observed or (2) the compound was not tested)” in experiment [1] (96-well HTS diet bioassay); “B (either (1) the compound was tested and less than 50 percent mortality was observed or (2) the compound was not tested)” in experiment [1] (setting [3]). Further, the “BAW 50 ug/cm2” value in experiment [2] (setting [4]) was “A (the compound was tested and at least 50 percent mortality was observed)”.
In the case of `COC1C(C)OC(ON=Cc2ccc(C3=NN(c4ccc(OC(F)(F)F)cc4)C(C(=O)OCC(C)C)C3)cc2)C(OC)C1OC` (mixture of isomers) [Compound 14], the “BAW HTS” value is “B (either (1) the compound was tested and less than 50 percent mortality was observed or (2) the compound was not tested)” in experiment [1] (96-well HTS diet bioassay); “B (either (1) the compound was tested and less than 50 percent mortality was observed or (2) the compound was not tested)” in experiment [1] (setting [3]). The “BAW 50 ug/cm2” value in experiment [2] (setting [4]) was “B (either (1) the compound was tested and less than 50 percent mortality was observed or (2) the compound was not tested)”.
Consider `CCOC1C(OC)C(C)OC(ON=Cc2ccc(C3NC(c4ccc(OC(F)(F)F)cc4)=NO3)cc2)C1OC` (mixture of isomers) [Compound 130], for which the “BAW HTS” value was “A (the compound was tested and at least 50 percent mortality was observed)” in experiment [1] (96-well HTS diet bioassay); “A (the compound was tested and at least 50 percent mortality was observed)” in experiment [1] (setting [3]). For the same molecule, the “BAW 50 ug/cm2” value in experiment [2] (setting [4]) is “A (the compound was tested and at least 50 percent mortality was observed)”.
In the case of `CCOC1C(OC)C(C)OC(OC(=O)Nc2ccc(C3=NN(c4ccc(OC(F)(F)C(F)(F)F)cc4)CC3CN(C)C)cc2)C1OC` (mixture of isomers) [Compound 180], the “BAW HTS” value was “B (either (1) the compound was tested and less than 50 percent mortality was observed or (2) the compound was not tested)” in experiment [1] (96-well HTS diet assay); “B (either (1) the compound was tested and less than 50 percent mortality was observed or (2) the compound was not tested)” in experiment [1] (setting [3]). Besides, in experiment [2] (setting [4]), the “BAW 50 ug/cm2” value was “A (the compound was tested and at least 50 percent mortality was observed)”.
For the molecule `COC1CC(OC(=O)Nc2ccc(-c3ncn(-c4ccc(OC(F)(F)C(F)(F)F)cc4)n3)cc2)OC(C)C1O` (mixture of isomers) [Compound 244], the “BAW HTS” value in experiment [1] (96-well HTS diet assay) was “B (either (1) the compound was tested and less than 50 percent mortality was observed or (2) the compound was not tested)”; in experiment [1] (setting [3]) it was “B (either (1) the compound was tested and less than 50 percent mortality was observed or (2) the compound was not tested)”. Also, the “BAW 50 ug/cm2” value in experiment [2] (setting [4]) was “A (the compound was tested and at least 50 percent mortality was observed)”.
Take `CCOC1C(OC)C(C)OC(OC(=O)Nc2ccc(C3=NC(c4ccc(OC(F)(F)F)cc4)CO3)cc2)C1OC` (mixture of isomers) [Compound 247]: the “BAW HTS” value in experiment [1] (96-well HTS diet assay) was “B (either (1) the compound was tested and less than 50 percent mortality was observed or (2) the compound was not tested)”; in experiment [1] (setting [3]), “B (either (1) the compound was tested and less than 50 percent mortality was observed or (2) the compound was not tested)”. The “BAW 50 ug/cm2” value in experiment [2] (setting [4]) was “A (the compound was tested and at least 50 percent mortality was observed)”.
Take `COc1cccc(-c2cnn(-c3ccc(C=NOC4OC(C)C(OC)C(OC)C4OC)cc3)c2)c1` (stereo not drawn) [Compound 1]: the “BAW HTS” value in experiment [1] (96-well HTS diet assay) was “A (the compound was tested and at least 50 percent mortality was observed)”; in experiment [1] (96-well HTS diet bioassay), “A (the compound was tested and at least 50 percent mortality was observed)”. Moreover, the “BAW 50 ug/cm2” value in experiment [2] (setting [5]) is “B (either (1) the compound was tested and less than 50 percent mortality was observed or (2) the compound was not tested)”.
With `COC1C(C)OC(ON=Cc2ccc(-n3ccc(-c4ccc(Cl)cc4)n3)cc2)C(OC)C1OC` (stereo not drawn) [Compound 2], the “BAW HTS” value was “A (the compound was tested and at least 50 percent mortality was observed)” in experiment [1] (96-well HTS diet assay); “A (the compound was tested and at least 50 percent mortality was observed)” in experiment [1] (96-well HTS diet bioassay). In addition, the “BAW 50 ug/cm2” value in experiment [2] (setting [5]) was “B (either (1) the compound was tested and less than 50 percent mortality was observed or (2) the compound was not tested)”.
In the case of `COC1C(C)OC(ON=Cc2ccc(-n3ccc(-c4ccccn4)n3)cc2)C(OC)C1OC` (stereo not drawn) [Compound 3], the “BAW HTS” value in experiment [1] (96-well HTS diet assay) was “A (the compound was tested and at least 50 percent mortality was observed)”; in experiment [1] (96-well HTS diet bioassay), “A (the compound was tested and at least 50 percent mortality was observed)”. Moreover, the “BAW 50 ug/cm2” value in experiment [2] (setting [5]) was “B (either (1) the compound was tested and less than 50 percent mortality was observed or (2) the compound was not tested)”.
Turning to `COC1C(C)OC(ON=Cc2ccc(-n3ccc(-c4cccs4)n3)cc2)C(OC)C1OC` (stereo not drawn) [Compound 4], the “BAW HTS” value in experiment [1] (96-well HTS diet assay) is “B (either (1) the compound was tested and less than 50 percent mortality was observed or (2) the compound was not tested)”; in experiment [1] (96-well HTS diet bioassay), “B (either (1) the compound was tested and less than 50 percent mortality was observed or (2) the compound was not tested)”. Besides, the “BAW 50 ug/cm2” value in experiment [2] (setting [5]) was “B (either (1) the compound was tested and less than 50 percent mortality was observed or (2) the compound was not tested)”.
As to `COC1C(C)OC(ON=Cc2ccc(-c3ccn(-c4ccc(SC(F)(F)F)cc4)n3)cc2)C(OC)C1OC` (stereo not drawn) [Compound 6], the “BAW HTS” value was “B (either (1) the compound was tested and less than 50 percent mortality was observed or (2) the compound was not tested)” in experiment [1] (96-well HTS diet bioassay); “B (either (1) the compound was tested and less than 50 percent mortality was observed or (2) the compound was not tested)” in experiment [1] (setting [3]). Moreover, in experiment [2] (setting [4]), the “BAW 50 ug/cm2” value is “A (the compound was tested and at least 50 percent mortality was observed)”.
Regarding `COC1C(C)OC(ON=Cc2ccc(-c3ccn(-c4ccc(OC(F)(F)C(F)F)cc4)n3)cc2)C(OC)C1OC` (stereo not drawn) [Compound 7], the “BAW HTS” value is “B (either (1) the compound was tested and less than 50 percent mortality was observed or (2) the compound was not tested)” in experiment [1] (96-well HTS diet bioassay); “B (either (1) the compound was tested and less than 50 percent mortality was observed or (2) the compound was not tested)” in experiment [1] (setting [3]). The “BAW 50 ug/cm2” value in experiment [2] (setting [4]) is “A (the compound was tested and at least 50 percent mortality was observed)”.
Consider `COC1C(C)OC(ON=Cc2ccc(-c3ccn(-c4ccc(OC(F)(F)C(F)(F)F)cc4)n3)cc2)C(OC)C1OC` (stereo not drawn) [Compound 8], for which the “BAW HTS” value in experiment [1] (96-well HTS diet bioassay) was “B (either (1) the compound was tested and less than 50 percent mortality was observed or (2) the compound was not tested)”; in experiment [1] (setting [3]), “B (either (1) the compound was tested and less than 50 percent mortality was observed or (2) the compound was not tested)”. Also, the “BAW 50 ug/cm2” value in experiment [2] (setting [4]) is “A (the compound was tested and at least 50 percent mortality was observed)”.
Turning to `COC1C(C)OC(ON=Cc2ccc(-c3ccn(-c4ccc(SC)cc4)n3)cc2)C(OC)C1OC` (stereo not drawn) [Compound 9], the “BAW HTS” value in experiment [1] (96-well HTS diet bioassay) is “B (either (1) the compound was tested and less than 50 percent mortality was observed or (2) the compound was not tested)”; in experiment [1] (setting [3]), “B (either (1) the compound was tested and less than 50 percent mortality was observed or (2) the compound was not tested)”. Further, the “BAW 50 ug/cm2” value in experiment [2] (setting [4]) was “A (the compound was tested and at least 50 percent mortality was observed)”.
In the case of `COC1C(C)OC(ON=Cc2ccc(-c3ccn(-c4ccc(C(C)C)cc4)n3)cc2)C(OC)C1OC` (stereo not drawn) [Compound 10], the “BAW HTS” value was “B (either (1) the compound was tested and less than 50 percent mortality was observed or (2) the compound was not tested)” in experiment [1] (96-well HTS diet bioassay); “B (either (1) the compound was tested and less than 50 percent mortality was observed or (2) the compound was not tested)” in experiment [1] (setting [3]). Also, in experiment [2] (setting [4]), the “BAW 50 ug/cm2” value was “A (the compound was tested and at least 50 percent mortality was observed)”.
For `COC1C(C)OC(ON=Cc2ccc(-c3ccn(-c4ccc(C(C)(C)C)cc4)n3)cc2)C(OC)C1OC` (stereo not drawn) [Compound 11], the “BAW HTS” value in experiment [1] (96-well HTS diet bioassay) is “B (either (1) the compound was tested and less than 50 percent mortality was observed or (2) the compound was not tested)”; in experiment [1] (setting [3]) it was “B (either (1) the compound was tested and less than 50 percent mortality was observed or (2) the compound was not tested)”. The “BAW 50 ug/cm2” value in experiment [2] (setting [4]) is “A (the compound was tested and at least 50 percent mortality was observed)”.

For the origin of these results see patent US8178658B2 (Dow AgroSciences, LLC, priority 2008, dated 2012).
